{
  "source": "patent US9611222B2",
  "about": "“Pyridine compounds and the uses thereof” (Purdue Pharma L.P., priority 2010, dated 2017)",
  "target": "human Nav1.7 (Homo sapiens (Human), UniProt Q15858)",
  "sequence (Q15858 with tags, fused parts or gaps limits assumed)": "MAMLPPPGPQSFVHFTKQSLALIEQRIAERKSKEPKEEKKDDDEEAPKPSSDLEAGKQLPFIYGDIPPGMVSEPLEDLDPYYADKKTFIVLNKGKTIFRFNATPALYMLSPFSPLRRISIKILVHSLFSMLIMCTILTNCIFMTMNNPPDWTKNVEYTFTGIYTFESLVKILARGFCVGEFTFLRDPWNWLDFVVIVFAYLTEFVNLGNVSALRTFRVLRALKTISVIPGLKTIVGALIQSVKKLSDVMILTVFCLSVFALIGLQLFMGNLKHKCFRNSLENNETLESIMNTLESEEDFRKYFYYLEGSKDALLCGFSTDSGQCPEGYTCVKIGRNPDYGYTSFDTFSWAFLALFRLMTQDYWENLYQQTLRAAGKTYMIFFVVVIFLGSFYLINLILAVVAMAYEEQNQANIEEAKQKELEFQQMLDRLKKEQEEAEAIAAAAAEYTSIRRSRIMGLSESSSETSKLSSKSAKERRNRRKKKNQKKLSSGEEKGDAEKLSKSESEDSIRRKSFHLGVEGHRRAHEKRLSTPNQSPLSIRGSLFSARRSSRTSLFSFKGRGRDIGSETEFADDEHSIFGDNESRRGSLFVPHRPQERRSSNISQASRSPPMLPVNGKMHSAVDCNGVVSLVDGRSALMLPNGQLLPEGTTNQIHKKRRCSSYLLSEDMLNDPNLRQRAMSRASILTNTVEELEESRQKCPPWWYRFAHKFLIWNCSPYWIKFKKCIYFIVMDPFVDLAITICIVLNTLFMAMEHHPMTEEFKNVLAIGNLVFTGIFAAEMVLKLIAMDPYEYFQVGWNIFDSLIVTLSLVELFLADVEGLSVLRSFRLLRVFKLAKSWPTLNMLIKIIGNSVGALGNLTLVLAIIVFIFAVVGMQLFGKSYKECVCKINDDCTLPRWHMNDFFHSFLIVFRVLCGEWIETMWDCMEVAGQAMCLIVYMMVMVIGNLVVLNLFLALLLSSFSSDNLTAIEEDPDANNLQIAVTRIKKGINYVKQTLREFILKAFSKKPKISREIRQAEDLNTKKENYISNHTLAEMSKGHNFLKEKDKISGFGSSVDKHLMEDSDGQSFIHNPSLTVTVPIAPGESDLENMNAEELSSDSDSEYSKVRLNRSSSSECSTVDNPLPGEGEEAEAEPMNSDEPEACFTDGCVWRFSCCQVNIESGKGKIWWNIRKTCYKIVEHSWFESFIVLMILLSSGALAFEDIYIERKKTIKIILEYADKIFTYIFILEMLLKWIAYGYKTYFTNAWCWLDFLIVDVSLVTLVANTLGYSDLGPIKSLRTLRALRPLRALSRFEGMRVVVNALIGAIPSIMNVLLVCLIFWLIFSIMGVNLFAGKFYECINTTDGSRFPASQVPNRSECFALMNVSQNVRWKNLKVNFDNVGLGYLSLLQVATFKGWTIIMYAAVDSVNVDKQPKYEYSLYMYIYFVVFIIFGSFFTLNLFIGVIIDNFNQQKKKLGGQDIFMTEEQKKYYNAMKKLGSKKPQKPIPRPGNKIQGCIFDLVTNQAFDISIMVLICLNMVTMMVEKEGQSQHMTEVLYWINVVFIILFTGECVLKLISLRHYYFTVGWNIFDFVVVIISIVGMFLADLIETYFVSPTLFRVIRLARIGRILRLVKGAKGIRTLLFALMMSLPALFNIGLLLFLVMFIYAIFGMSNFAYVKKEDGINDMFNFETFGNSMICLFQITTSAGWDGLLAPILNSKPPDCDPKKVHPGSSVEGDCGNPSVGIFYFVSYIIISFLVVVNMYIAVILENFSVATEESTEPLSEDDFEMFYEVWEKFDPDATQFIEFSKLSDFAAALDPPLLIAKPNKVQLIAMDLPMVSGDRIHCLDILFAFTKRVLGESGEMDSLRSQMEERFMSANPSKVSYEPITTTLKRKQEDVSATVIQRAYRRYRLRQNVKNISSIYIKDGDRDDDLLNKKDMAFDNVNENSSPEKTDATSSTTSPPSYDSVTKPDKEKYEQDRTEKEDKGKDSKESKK",
  "assay": "FLIPR or FLIPR TETRA sodium dye assay with KCl and test article pre-incubation",
  "type": "cell-based",
  "settings": "sodium channel blocking activity, recombinant HEK293 cells, CoroNa Green dye, veratridine + scorpion venom; read-out: Nav1.7 IC50 (μM) ± SEM",
  "data": [
    {"smiles": "Cc1cc(-c2nnn(CC(N)=O)n2)cc(-c2ccc(Oc3ccc(F)cc3)cc2)n1", "note": "[compound 108, 2-(5-(2-(4-(4-fluorophenoxy)phenyl)-6-methylpyridin-4-yl)-2H-tetrazol-2-yl) acetamide]", "values": [
      {"measurement": "IC50", "result": "0.13 ± 0.01", "unit": "µM"}
    ]}
  ]
}
